In patent US7723289B2, “PIF tetrapeptides” (BioIncept, LLC, priority 2003, dated 2010):
No end group written: not given here.

Assays:
[1] = tested on: PBMC; assay: FITC-labeled PIF binding to PBMC subpopulations (flow cytometry); parameters: species or system human; details: 0.75 to 48.19 μM, 1 h room temperature
Description: Expression of PIF-1(15) (SEQ ID NO:1), receptor following PHA induced PBMC proliferation CD-4 T cells; CD-8 T cells; NK cell and B cells (unstimulated-top); (PHA stimulated-bottom). Flow cytometry analysis of PBMC following exposure to FITC sPIF-1(15) (SEQ ID NO:13) % expression was determined in PBMC subtypes before and after exposure to 1 ug/ml PHA for 24 hours.
(§1) Human PBMC were isolated by the Ficoll method. FITC-labeled nPIF-115 (SEQ ID NO: 1) and (FITC)-labeled scrPIF-1 (SEQ ID NO:5) and match-size irrelevant peptide (FITC)-labeled negative controls negPIF-1(15) (SEQ ID NO:11), were dissolved in PBS at concentrations ranging from 0.75 to 48.19 μM, and were incubated with 500,000 lymphocytes for 1 h at room temperature. The cells were washed 6 times with PBS and resuspended in 500 μl of the same buffer. T-cells and monocytes identification was performed in independent experiments by incubation with anti-CD3 and anti-CD14 antibody-phycoerithryn (PE) labeled. nPIF-115 (SEQ ID NO: 1) binding to PBMC was determined by flow cytometry. In addition, rosettes formed by T cell-platelets were detected by flow cytometry using anti-CD3 antibody-PE and anti-CD41a antibody-FITC (all antibodies were from Pharmingen Inc.).
Using flow cytometry fluoroscein-labeled sPIF-115 (SEQ ID NO: 13) binding to immune cells was examined on resting PBMC.

[2] = tested on: mice; assay: Intravaginal administration twice daily for seven days in mated mice; assay type: in vivo; details: mice that conceived; implantation sites and viable embryos unaffected
Description: Female mice were mated with mice from the same strain. Subsequently, on day 0 (presumed day of mating) PIF-1scr in saline solution was administered intravaginally twice daily for seven days (Dr Alan Hoberman, Argus, Inc). The dose was 800 ug/day, 150 ug/ml or saline vehicle only (5 animals in each group). Subsequently, mice were sacrificed at day 12 of presumed gestation and Caesarean-sectioned. Corpora lutea, implantation sites and live and dead embryos were recorded.

[3] = tested on: PBMC; assay: PIF and analogues on release of cytokines +/- platebound mAbCD3 (Table 4); assay type: cell-based; parameters: IL-1β / TNFa / IL-4 / IL-5 / IL-6 / IL-10 / GM-CSM / IFN-g: unit not given here
[4] = tested on: donor lymphocytes and platelets; assay type: cell-based, human; details: flow cytometric determination; data not shown
Text: The PIF assay, as disclosed in U.S. Pat. No. 5,646,003 to Barnea et al., entitled “Preimplantation Factor” issued Jul. 9, 1997, and in U.S. Pat. No. 5,981,198 to Barnea et al., entitled “Preimplantation Factor” granted Nov. 9, 1999, the disclosures of which are incorporated herein by reference in their entirety, may be used to measure the response of the immune system to pregnancy specific preimplantation factors. […] Lymphocyte-platelet rosettes result from the interaction of the T cell surface protein CD2 with its ligand CD58 expressed on the platelet membrane. Anti-CD2, by binding to the CD2 antigen on the T cells, inhibits their interaction with platelets.
as §1

[5] = tested on: β-3 integrin; assay: β-3 integrin expression by human endometrial epithelial cells (flow cytometry, immunocytochemistry); assay type: cell-based; details: hEEC, 2-day culture, 1-500 nM
Description: Human endometrial tissues were digested and stromal and epithelial cells (hEEC) isolated and cultured with a fetal bovine serum (FBS)-enriched medium until confluent layers were obtained. After that the cells were cultured for two more days in a FBS free-medium followed by a further 2-day culture in the same medium containing PIF peptides (1-500 nM).
(§2) In addition, to compare the recovery of β-3 integrin expression with PIF effects described after cultured hEEC in a free-fetal bovine serum (FBS) medium some cells were cultured again in FBS-medium. […] PIF binding to epithelial cells was also examined. Binding was examined using MaBCD2 staining.

[6] = tested on: epithelial cells; assay: PIF binding to endometrial epithelial cells (MaBCD2 staining); parameters: species or system human; details: compared to non-relevant IgG
Description: as §2

GMRELQRSANK [negPIF-1(15), reference compound]
labeling of T cell-platelet rosettes by FITC-labeled peptide [1]: not labeled

GRVDPSNKSMPKDIA [scrPIF-115, GRVDPSNKSMPKDIA]
toxic or teratogenic effects [2]: No toxic or teratogenic effects

MVRIK [sPIF-1(5)]
GM-CSM ([3]; C- (platebound mAbCD3), /1): 26.8
IFN-g ([3]; C- (platebound mAbCD3), /1): 98.2
IL-1β ([3]; C- (platebound mAbCD3), /1): 10.7
IL-2 ([3]; C- (platebound mAbCD3), /1): 19.2
IL-4 ([3]; C- (platebound mAbCD3), /1): 16.93
IL-5 ([3]; C- (platebound mAbCD3), /1): 0
IL-6 ([3]; C- (platebound mAbCD3), /1): 221.8
IL-8 ([3]; C- (platebound mAbCD3), /1): >5000
IL-10 ([3]; C- (platebound mAbCD3), /1): 68.5
TNFa ([3]; C- (platebound mAbCD3), /1): 142.8
GM-CSM ([3]; C- (platebound mAbCD3), /50): 20.7
IFN-g ([3]; C- (platebound mAbCD3), /50): 81.2
IL-1β ([3]; C- (platebound mAbCD3), /50): 5.3
IL-2 ([3]; C- (platebound mAbCD3), /50): 20.0
IL-4 ([3]; C- (platebound mAbCD3), /50): 0
IL-5 ([3]; C- (platebound mAbCD3), /50): 0
IL-6 ([3]; C- (platebound mAbCD3), /50): 178.9
IL-8 ([3]; C- (platebound mAbCD3), /50): >5000
IL-10 ([3]; C- (platebound mAbCD3), /50): 57.2
TNFa ([3]; C- (platebound mAbCD3), /50): 81.1
GM-CSM ([3]; U- (no mAbCD3), /1): 0
IFN-g ([3]; U- (no mAbCD3), /1): 0
IL-1β ([3]; U- (no mAbCD3), /1): 0
IL-2 ([3]; U- (no mAbCD3), /1): 0
IL-4 ([3]; U- (no mAbCD3), /1): 0
IL-5 ([3]; U- (no mAbCD3), /1): 0
IL-6 ([3]; U- (no mAbCD3), /1): 28.9
IL-8 ([3]; U- (no mAbCD3), /1): 763.6
IL-10 ([3]; U- (no mAbCD3), /1): 0
TNFa ([3]; U- (no mAbCD3), /1): 0
GM-CSM ([3]; U- (no mAbCD3), /50): 0
IFN-g ([3]; U- (no mAbCD3), /50): 0
IL-1β ([3]; U- (no mAbCD3), /50): 0
IL-2 ([3]; U- (no mAbCD3), /50): 0
IL-4 ([3]; U- (no mAbCD3), /50): 0
IL-5 ([3]; U- (no mAbCD3), /50): 0
IL-6 ([3]; U- (no mAbCD3), /50): 37.6
IL-8 ([3]; U- (no mAbCD3), /50): 786.4
IL-10 ([3]; U- (no mAbCD3), /50): 0
TNFa ([3]; U- (no mAbCD3), /50): 0
effect on cytokine secretion ([3]; following exposure to CD3Mab, dose dependent): mild

MVRIKPGSA [sPIF-1(9)]
increase in the number of rosettes in the presence of the anti-CD2 antibody [4]: four-fold increase
GM-CSM ([3]; C- (platebound mAbCD3), /1): 14.3
IFN-g ([3]; C- (platebound mAbCD3), /1): 86.5
IL-1β ([3]; C- (platebound mAbCD3), /1): 4.8
IL-2 ([3]; C- (platebound mAbCD3), /1): 26.4
IL-4 ([3]; C- (platebound mAbCD3), /1): 0
IL-5 ([3]; C- (platebound mAbCD3), /1): 0
IL-6 ([3]; C- (platebound mAbCD3), /1): 177.6
IL-8 ([3]; C- (platebound mAbCD3), /1): >5000
IL-10 ([3]; C- (platebound mAbCD3), /1): 49.0
TNFa ([3]; C- (platebound mAbCD3), /1): 60.1
GM-CSM ([3]; C- (platebound mAbCD3), /50): 25.3
IFN-g ([3]; C- (platebound mAbCD3), /50): 132.1
IL-1β ([3]; C- (platebound mAbCD3), /50): 7.8
IL-2 ([3]; C- (platebound mAbCD3), /50): 33.7
IL-4 ([3]; C- (platebound mAbCD3), /50): 18.16
IL-5 ([3]; C- (platebound mAbCD3), /50): 0
IL-6 ([3]; C- (platebound mAbCD3), /50): 249.4
IL-8 ([3]; C- (platebound mAbCD3), /50): >5000
IL-10 ([3]; C- (platebound mAbCD3), /50): 105.0
TNFa ([3]; C- (platebound mAbCD3), /50): 160.8
GM-CSM ([3]; U- (no mAbCD3), /1): 0
IFN-g ([3]; U- (no mAbCD3), /1): 0
IL-1β ([3]; U- (no mAbCD3), /1): 0
IL-2 ([3]; U- (no mAbCD3), /1): 0
IL-4 ([3]; U- (no mAbCD3), /1): 0
IL-5 ([3]; U- (no mAbCD3), /1): 0
IL-6 ([3]; U- (no mAbCD3), /1): 40.8
IL-8 ([3]; U- (no mAbCD3), /1): 772.46
IL-10 ([3]; U- (no mAbCD3), /1): 0
TNFa ([3]; U- (no mAbCD3), /1): 0
GM-CSM ([3]; U- (no mAbCD3), /50): 0
IFN-g ([3]; U- (no mAbCD3), /50): 0
IL-1β ([3]; U- (no mAbCD3), /50): 0
IL-2 ([3]; U- (no mAbCD3), /50): 13.1
IL-4 ([3]; U- (no mAbCD3), /50): 0
IL-5 ([3]; U- (no mAbCD3), /50): 0
IL-6 ([3]; U- (no mAbCD3), /50): 38.7
IL-8 ([3]; U- (no mAbCD3), /50): 1480.2
IL-10 ([3]; U- (no mAbCD3), /50): 0
TNFa ([3]; U- (no mAbCD3), /50): 0
effect on IL6 and 8 ([3]; non-stimulated PBMC): stimulatory effect
increase in the expression of β-3-epithelial integrin [5]: up to a four-fold increase
binding to epithelial cells [6]: highest binding
